Values of other authors as cited in article PMC11172375, “Preclinical Evaluation of Biodistribution and Toxicity of [^211At]PSMA-5 in Mice and Primates for the Targeted Alpha Therapy against Prostate Cancer” (International Journal of Molecular Sciences, 2024).

What was measured:
[1] = cited from earlier work
[2] = set-up: method as in PMID 27230930; conditions: mice treated with 1.5MBq (75MBq/kg); cited from earlier work
[3] = tested on: metastatic castration-resistant prostate cancer; set-up: method as in doi:10.1200/JCO.2022.40.6_suppl.TPS211; conditions: taxane-naïve patients with mCRPC, PSMAfore trial; cited from earlier work
[4] = tested on: metastatic castration-resistant prostate cancer; set-up: method as in PMID 34161051; conditions: patients with mCRPC previously treated with ARPI and taxane, VISION trial; cited from earlier work
[5] = tested on: prostate cancer; set-up: method as in PMID 27390158, PMID 38218192, PMID 33293081, PMID 33008928, PMID 37247612; conditions: patients resistant to beta therapy with [177Lu]PSMA-617; cited from earlier work

## [211At-].[Na+] [[^211At]NaAt]
[1]; 3 h post-administration
  uptake in the thyroid: 509 %ID/g
[1]; even in low-dose groups (5 MBq/kg)
  thyroid histology: thyroid ablation effects

## O=C(O)CC[C@H](NC(=O)NC(CCCCNC(=O)c1ccc([211At])cc1)C(=O)O)C(=O)O (stereo partly drawn) [^211At-6, (2S)-2-(3-(1-Carboxy-5-(4-211At-Astatobenzamido)Pentyl)Ureido)-Pentanedioic Acid]
[2]
  kidney toxicity: late nephropathy with loss of the proximal tubules

## O=C([O-])CN1CCN(CC(=O)[O-])CCN(CC(=O)NCC2CCC(C(=O)N[C@@H](Cc3ccc4ccccc4c3)C(=O)NCCCC[C@H](NC(=O)N[C@@H](CCC(=O)O)C(=O)O)C(=O)O)CC2)CCN(CC(=O)[O-])CC1.[177Lu+3] (stereo partly drawn) [[^177Lu]PSMA-617]
[3]
  radiographic progression-free survival compared to ARPI changes: prolong radiographic progression-free survival
[4]
  overall survival compared to the standard of care: significantly extended overall survival

## O=C([O-])CC[C@H](NC(=O)N[C@@H](CCCCNC(=O)[C@H](Cc1ccc2ccccc2c1)NC(=O)C1CCC(CNC(=O)CN2CCN(CC(=O)[O-])CCN(CC(=O)[O-])CCN(CC(=O)[O-])CC2)CC1)C(=O)[O-])C(=O)[O-].[225Ac].[H+].[H+].[H+] (stereo partly drawn) [[^225Ac]PSMA-617]
[5]
  efficacy of alpha therapy: proven effective
